Assay results published in PubChem BioAssay AID248 (DTP/NCI, 2004).
Values joined by “and” are separate entries in the source; they are usually repeats but may differ in a detail not shown here. Equal values may be shown once. Inconclusive results and toxic doses are left out. No stated cut-off is given here; in the data, active means T/C of 150% or more; inactive means T/C below 125%.

System: L1210 leukemia ip in BDF1 mice, survival T/C
Experiment: NCI In Vivo Anticancer Drug Screen. Data for tumor model L1210 Leukemia (intraperitoneal) in B6D2F1 (BDF1) mice
Conditions: higher = longer survival
Outline: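 Antitumor effect is assessed in tumor-bearing animals. Survival in the compound arm is compared with a vehicle-dosed control arm and expressed as their quotient.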

Measured: T/C

C[n+]1c2ccccc2nc2c(N)cc(N)cc21
inactive: endpoint: mean survival time, dose: 1.0 mg/kg/injection, schedule: Q03HX024 (ip), vehicle: saline 101 % of control | endpoint: mean survival time, dose: 1.25 mg/kg/injection, schedule: Q#A X030 (ip), vehicle: water 104 % of control | endpoint: mean survival time, dose: 2.0 mg/kg/injection, schedule: Q01DX005 (iv), vehicle: saline 99 % of control | endpoint: mean survival time, dose: 2.0 mg/kg/injection, schedule: Q01DX009 (ip), vehicle: saline 96 % of control | endpoint: mean survival time, dose: 2.0 mg/kg/injection, schedule: Q03HX016 (ip), vehicle: saline 101 % of control | endpoint: mean survival time, dose: 2.0 mg/kg/injection, schedule: Q03HX024 (ip), vehicle: saline 107 % of control | endpoint: mean survival time, dose: 2.5 mg/kg/injection, schedule: Q01DX010 (oral), vehicle: water 105 % of control | endpoint: mean survival time, dose: 2.5 mg/kg/injection, schedule: Q#A X030 (ip), vehicle: water 107 % of control | endpoint: mean survival time, dose: 3.0 mg/kg/injection, schedule: Q01DX Z (ip), vehicle: saline 109 % of control | endpoint: mean survival time, dose: 3.12 mg/kg/injection, schedule: Q01DX001 (ip), vehicle: water 109 % of control and 110 % of control | endpoint: mean survival time, dose: 4.0 mg/kg/injection, schedule: Q01DX001 (iv), vehicle: saline 94 % of control | endpoint: mean survival time, dose: 4.0 mg/kg/injection, schedule: Q01DX005 (iv), vehicle: saline 96 % of control | endpoint: mean survival time, dose: 4.0 mg/kg/injection, schedule: Q01DX007 (iv), vehicle: saline 113 % of control | endpoint: mean survival time, dose: 4.0 mg/kg/injection, schedule: Q01DX009 (ip), vehicle: saline 104 % of control | endpoint: mean survival time, dose: 4.0 mg/kg/injection, schedule: Q01DX Z (sc), vehicle: steriod suspending solution 103 % of control | endpoint: mean survival time, dose: 4.0 mg/kg/injection, schedule: Q03HX008 (ip), vehicle: saline 107 % of control | endpoint: mean survival time, dose: 4.0 mg/kg/injection, schedule: Q03HX016 (ip), vehicle: saline 96 % of control | endpoint: mean survival time, dose: 4.0 mg/kg/injection, schedule: Q03HX024 (ip), vehicle: saline 100 % of control | endpoint: mean survival time, dose: 4.4 mg/kg/injection, schedule: Q#A X Z (ip), vehicle: carboxymethylcellulose (CMC) 110 % of control | endpoint: mean survival time, dose: 5.0 mg/kg/injection, schedule: Q01DX001 (ip), vehicle: saline 103 % of control | endpoint: mean survival time, dose: 5.0 mg/kg/injection, schedule: Q01DX009 (ip), vehicle: saline 111 % of control | endpoint: mean survival time, dose: 5.0 mg/kg/injection, schedule: Q01DX Z (im), vehicle: saline 104 % of control | endpoint: mean survival time, dose: 5.0 mg/kg/injection, schedule: Q01DX Z (ip), vehicle: saline 112 % of control | endpoint: mean survival time, dose: 6.25 mg/kg/injection, schedule: Q01DX001 (ip), vehicle: water 110 % of control | endpoint: mean survival time, dose: 6.65 mg/kg/injection, schedule: Q#A X Z (ip), vehicle: carboxymethylcellulose (CMC) 104 % of control | endpoint: mean survival time, dose: 8.0 mg/kg/injection, schedule: Q01DX001 (iv), vehicle: saline 96 % of control | endpoint: mean survival time, dose: 8.0 mg/kg/injection, schedule: Q01DX005 (iv), vehicle: saline 93 % of control | endpoint: mean survival time, dose: 8.0 mg/kg/injection, schedule: Q01DX007 (iv), vehicle: saline 104 % of control | endpoint: mean survival time, dose: 8.0 mg/kg/injection, schedule: Q01DX009 (ip), vehicle: saline 101 % of control | endpoint: mean survival time, dose: 8.0 mg/kg/injection, schedule: Q01DX Z (sc), vehicle: steriod suspending solution 109 % of control | endpoint: mean survival time, dose: 8.0 mg/kg/injection, schedule: Q03HX008 (ip), vehicle: saline 110 % of control | endpoint: mean survival time, dose: 8.0 mg/kg/injection, schedule: Q03HX016 (ip), vehicle: saline 101 % of control | endpoint: mean survival time, dose: 8.0 mg/kg/injection, schedule: Q03HX024 (ip), vehicle: saline 112 % of control | endpoint: mean survival time, dose: 8.0 mg/kg/injection, schedule: Q04DX003 (ip), vehicle: saline 101 % of control | endpoint: mean survival time, dose: 10.0 mg/kg/injection, schedule: Q01DX001 (ip), vehicle: saline 103 % of control | endpoint: mean survival time, dose: 10.0 mg/kg/injection, schedule: Q01DX010 (oral), vehicle: water 113 % of control | endpoint: mean survival time, dose: 10.0 mg/kg/injection, schedule: Q01DX Z (im), vehicle: saline 106 % of control | endpoint: mean survival time, dose: 12.5 mg/kg/injection, schedule: Q01DX001 (ip), vehicle: water 112 % of control | endpoint: mean survival time, dose: 16.0 mg/kg/injection, schedule: Q01DX001 (iv), vehicle: saline 96 % of control | endpoint: mean survival time, dose: 16.0 mg/kg/injection, schedule: Q01DX005 (iv), vehicle: saline 102 % of control | endpoint: mean survival time, dose: 16.0 mg/kg/injection, schedule: Q01DX009 (sc), vehicle: saline 104 % of control | endpoint: mean survival time, dose: 16.0 mg/kg/injection, schedule: Q01DX Z (sc), vehicle: steriod suspending solution 104 % of control and 105 % of control | endpoint: mean survival time, dose: 16.0 mg/kg/injection, schedule: Q03HX008 (ip), vehicle: saline 107 % of control | endpoint: mean survival time, dose: 16.0 mg/kg/injection, schedule: Q03HX016 (ip), vehicle: saline 104 % of control and 113 % of control | endpoint: mean survival time, dose: 16.0 mg/kg/injection, schedule: Q04DX003 (ip), vehicle: saline 103 % of control | endpoint: mean survival time, dose: 16.0 mg/kg/injection, schedule: Q08DX002 (ip), vehicle: saline 102 % of control | endpoint: mean survival time, dose: 20.0 mg/kg/injection, schedule: Q01DX001 (ip), vehicle: saline 101 % of control | endpoint: mean survival time, dose: 20.0 mg/kg/injection, schedule: Q01DX009 (ip), vehicle: saline 110 % of control | endpoint: mean survival time, dose: 20.0 mg/kg/injection, schedule: Q01DX010 (oral), vehicle: water 107 % of control and 111 % of control | endpoint: mean survival time, dose: 20.0 mg/kg/injection, schedule: Q01DX Z (im), vehicle: saline 108 % of control | endpoint: mean survival time, dose: 20.0 mg/kg/injection, schedule: Q01DX Z (ip), vehicle: saline 114 % of control | endpoint: mean survival time, dose: 20.0 mg/kg/injection, schedule: Q01DX Z (oral), vehicle: saline 106 % of control | endpoint: mean survival time, dose: 25.0 mg/kg/injection, schedule: Q01DX001 (ip), vehicle: other 112 % of control | endpoint: mean survival time, dose: 32.0 mg/kg/injection, schedule: Q01DX001 (ip), vehicle: saline 108 % of control | endpoint: mean survival time, dose: 32.0 mg/kg/injection, schedule: Q01DX001 (iv), vehicle: saline 96 % of control | endpoint: mean survival time, dose: 32.0 mg/kg/injection, schedule: Q01DX009 (oral), vehicle: saline 102 % of control | endpoint: mean survival time, dose: 32.0 mg/kg/injection, schedule: Q01DX009 (sc), vehicle: saline 106 % of control | endpoint: mean survival time, dose: 32.0 mg/kg/injection, schedule: Q01DX Z (sc), vehicle: steriod suspending solution 100 % of control | endpoint: mean survival time, dose: 32.0 mg/kg/injection, schedule: Q03HX016 (ip), vehicle: saline 110 % of control | endpoint: mean survival time, dose: 32.0 mg/kg/injection, schedule: Q04DX003 (ip), vehicle: saline 107 % of control | endpoint: mean survival time, dose: 32.0 mg/kg/injection, schedule: Q08DX002 (ip), vehicle: saline 98 % of control | endpoint: mean survival time, dose: 37.0 mg/kg/injection, schedule: Q01DX001 (ip), vehicle: other 107 % of control | endpoint: mean survival time, dose: 40.0 mg/kg/injection, schedule: Q01DX001 (ip), vehicle: saline 110 % of control | endpoint: mean survival time, dose: 40.0 mg/kg/injection, schedule: Q01DX009 (ip), vehicle: saline 97 % of control | endpoint: mean survival time, dose: 40.0 mg/kg/injection, schedule: Q01DX010 (oral), vehicle: water 104 % of control | endpoint: mean survival time, dose: 40.0 mg/kg/injection, schedule: Q01DX Z (ip), vehicle: saline 109 % of control | endpoint: mean survival time, dose: 50.0 mg/kg/injection, schedule: Q01DX001 (ip), vehicle: water 110 % of control | endpoint: mean survival time, dose: 56.0 mg/kg/injection, schedule: Q01DX001 (ip), vehicle: other 111 % of control | endpoint: mean survival time, dose: 61.6 mg/kg/injection, schedule: Q07DX Z (ip), vehicle: carboxymethylcellulose (CMC) 112 % of control | endpoint: mean survival time, dose: 64.0 mg/kg/injection, schedule: Q01DX001 (ip), vehicle: saline 114 % of control | endpoint: mean survival time, dose: 64.0 mg/kg/injection, schedule: Q01DX001 (oral), vehicle: saline 106 % of control | endpoint: mean survival time, dose: 64.0 mg/kg/injection, schedule: Q01DX001 (sc), vehicle: saline 98 % of control | endpoint: mean survival time, dose: 64.0 mg/kg/injection, schedule: Q01DX009 (oral), vehicle: saline 98 % of control | endpoint: mean survival time, dose: 64.0 mg/kg/injection, schedule: Q01DX Z (sc), vehicle: steriod suspending solution 101 % of control | endpoint: mean survival time, dose: 64.0 mg/kg/injection, schedule: Q08DX002 (ip), vehicle: saline 104 % of control | endpoint: mean survival time, dose: 80.0 mg/kg/injection, schedule: Q01DX001 (ip), vehicle: saline 103 % of control | endpoint: mean survival time, dose: 80.0 mg/kg/injection, schedule: Q01DX010 (oral), vehicle: water 110 % of control | endpoint: mean survival time, dose: 93.1 mg/kg/injection, schedule: Q07DX Z (ip), vehicle: carboxymethylcellulose (CMC) 110 % of control | endpoint: mean survival time, dose: 128.0 mg/kg/injection, schedule: Q01DX001 (oral), vehicle: saline 98 % of control | endpoint: mean survival time, dose: 128.0 mg/kg/injection, schedule: Q01DX001 (sc), vehicle: saline 98 % of control | endpoint: mean survival time, dose: 128.0 mg/kg/injection, schedule: Q08DX002 (ip), vehicle: saline 104 % of control | endpoint: mean survival time, dose: 140.0 mg/kg/injection, schedule: Q07DX Z (ip), vehicle: carboxymethylcellulose (CMC) 112 % of control | endpoint: mean survival time, dose: 160.0 mg/kg/injection, schedule: Q01DX010 (oral), vehicle: water 110 % of control | endpoint: mean survival time, dose: 256.0 mg/kg/injection, schedule: Q01DX001 (oral), vehicle: saline 98 % of control | endpoint: mean survival time, dose: 256.0 mg/kg/injection, schedule: Q01DX001 (sc), vehicle: saline 105 % of control | endpoint: mean survival time, dose: 256.0 mg/kg/injection, schedule: Q01DX009 (oral), vehicle: saline 104 % of control and 114 % of control | endpoint: mean survival time, dose: 288.0 mg/kg/injection, schedule: Q01DX Z (oral), vehicle: other 103 % of control | endpoint: mean survival time, dose: 432.0 mg/kg/injection, schedule: Q01DX Z (oral), vehicle: other 95 % of control | endpoint: mean survival time, dose: 512.0 mg/kg/injection, schedule: Q01DX001 (oral), vehicle: saline 106 % of control | endpoint: mean survival time, dose: 512.0 mg/kg/injection, schedule: Q01DX009 (oral), vehicle: saline 112 % of control | endpoint: mean survival time, dose: 1024.0 mg/kg/injection, schedule: Q01DX001 (oral), vehicle: saline 109 % of control | endpoint: median survival time, dose: 5.0 mg/kg/injection, schedule: Q01DX009 (ip), vehicle: saline 110 % of control and 113 % of control
